Assay results from patent US9409893B2, “Heteroaryl derivatives and uses thereof” (Jacobus Pharmaceutical Company, Inc., priority 2012, dated 2016).
Structures can show the parent of a compound that is named as a salt. Where two headings read alike, the source gives them in different places.

Tests used:
P. falciparum strain D6 = assay: [3H]-hypoxanthine growth inhibition assay, P. falciparum D6; type: cell-based; conditions: Plasmodium falciparum
Method: (§1) The potential for antimalarial activity against Plasmodium falciparum was determined by measuring the incorporation of tritiated hypoxanthine into parasitized red blood cells.
(§2) Stock solutions of the test compounds and the reference drug chloroquine (CQ) (Sigma Chemicals C-6628, Lot #059H0919) were prepared in silanized glass vials with AquaSil™ (Pierce, USA) to minimize absorption of the compounds to glassware. All test compounds were dissolved in DMSO (Sigma Cat No. #D8418) to 1 mM concentration, whereas CQ was dissolved in 50% methanol at a concentration of 1.6 mg/ml (base). Stock solutions were stored at −20° C.
(§3) The P. falciparum laboratory adapted strains utilized in this project (Table 1) were in vitro cultured and routinely maintained in RPMI-1640-LPLF complete medium, which contained low concentrations of para-amino benzoic acid (0.0005 mg/L) and folic acid (0.01 mg/L).
(§4) The low concentration of folic acid in RPMI-1640-LPLF prevents inhibition of the compound if its activity targets the parasite's folate metabolic pathway. Parasites were cultured in human red blood cells (RBCs) in vitro at 37° C. in special gas mixture (5% O2, 5% CO2 and 90% N2) as described Trager and Jensen (1979 Science 193:673-675).
(§5) Base cultivation medium consisted of 10.4 g/L RPMI-1640-LPLF powder (Gibco BRL), 5.97 g/L HEPES buffer (MP Biomedicals, USA), 2.0 g/L D-glucose (BDH chemicals, Australia), 0.05 g/L hypoxanthine (Sigma, USA) and 40 mg/L gentamycin (Pfizer, Australia). The pH of the medium was adjusted to 6.9 and the solution was filtered using 0.2 μm pore size (AcroCap, Gelman Science, USA). Complete medium was prepared by adding sodium bicarbonate solution (final concentration, 0.21%) and drug-free heat-inactivated human plasma, pooled from various blood types, obtained from the Australian Red Cross Blood Service (Brisbane) (final concentration, 10%) to the base RPMI-1640-LPLF. For [^3H]-hypoxanthine inhibition growth assay, RPMI-1640-LPLF complete medium which lacked [^3H]-hypoxanthine ([^3H]-RPMI-1640-LPLF) was used to prevent uptake of hypoxanthine by parasites, as radioactive hypoxanthine uptake is measured as a surrogate marker of growth. All complete medium was used within three days of preparation. See DE (Para) SOP 002 for methodology.
(§6) Red blood cells (RBC) were required for P. falciparum parasites to proliferate in vitro. 0 (Rh+) type blood was obtained from the Australian Red Cross Blood Service. The RBC were washed twice in phosphate-buffered saline (PBS) and once in [^3H]-RPMI-1640-LPLF complete medium by centrifugation at 1,500×g for 5 min. Following the final wash, the haematocrit was measured as the percent of RBC to total culture volume. The haematocrit was adjusted to 50% by removing or adding [^3H]-RPMI-LPLF complete medium. See DE (Para) SOP 003 for methodology.
(§7) All P. falciparum strains were grown in RPMI-1640-LPLF complete medium at 4% haematocrit and 1% to 8% parasitaemia at 37° C. in sealed flasks in a gas mixture of 5% O2, 5% CO2 and 90% N2 (BOC Gases, Brisbane, Australia). For drug susceptibility assays cultures were routinely synchronized when the majority of parasites (>85%) were at early trophozoite (ring) stage. Synchronization involved removing the more mature erythrocytic parasite stages by lysis, resulting in the retention only of early trophozoite (ring) stages. Synchronization was performed by re-suspending the infected red blood cell (iRBC) pellet in 5 to 10 times its volume of 5% D-sorbitol (Bacto Laboratories Pty. Ltd., Australia) for 5 min (Lambros and Vanderberg, 1979 J Parasitol 65: 418-420). The mixture was centrifuged (1,500 rpm for 5 min) and the supernatant removed. The iRBC were washed twice using PBS buffer and once using [^3H]-RPMI-LPLF plain medium. Following synchronization, a new culture was prepared with an initial parasitaemia of 1% in RPMI-LPLF complete medium. See DE (Para) SOP 008 for methodology.

P. falciparum strain W2 = assay: [3H]-hypoxanthine growth inhibition assay, P. falciparum W2; type: cell-based; conditions: Plasmodium falciparum
Method: as §1, §2, §3, §4, §5, §6, §7

[1] = P. falciparum D6 (sensitive to chloroquine and pyrimethamine), [3H]-hypoxanthine incorporation, read-out: D6 IC50
[2] = P. falciparum W2 (resistant to chloroquine and pyrimethamine), [3H]-hypoxanthine incorporation, read-out: W2 IC50

| IC50 (P. falciparum strain D6; [1]) | IC50 (P. falciparum strain W2; [2]) | Compound | IC50 (P. falciparum strain D6; D6, read-out: D6 IC50) | IC50 (P. falciparum strain W2; W2, read-out: W2 IC50) |
| --- | --- | --- | --- | --- |
| 45 nM | 25 nM | CC(C)(C)NCc1cc(C(C)(C)C)cc(-c2ccc(Cl)s2)c1O [Example 2, 4-(tert-Butyl)-2-((tert-butylamino)methyl)-6-(5-chlorothiophen-2-yl)phenol hydrochloride] |  |  |
|  |  | CC(C)(C)NCc1cc(C(C)(C)C)cc(-c2cnc3ccccc3c2)c1O [Example 3, 4-(tert-Butyl)-2-((tert-butylamino)methyl)-6-(quinolin-3-yl)phenol dihydrochloride] | 26 nM | 22 nM |
|  |  | CC(C)(C)NCc1cc(C(C)(C)C)cc(-c2cccc3ncccc23)c1O [Example 4, 4-(tert-Butyl)-2-((tert-butylamino)methyl)-6-(quinolin-5-yl)phenol dihydrochloride] | 144 nM | 200 nM |
|  |  | CC(C)(C)NCc1cc(C(C)(C)C)cc(-c2ccc3ncccc3c2)c1O [Example 5, 4-(tert-Butyl)-2-((tert-butylamino)methyl)-6-(quinolin-6-yl)phenol dihydrochloride] | 37 nM | 25 nM |
| 31 nM | 13 nM | CC(C)(C)NCc1cc(C(C)(C)C)cc(-c2cc3ccccc3o2)c1O [Example 6, 2-(Benzofuran-2-yl)-4-(tert-butyl)-6-((tert-butylamino)methyl)phenol hydrochloride] |  |  |
| 18 nM | 9 nM | CC(C)(C)NCc1cc(C(C)(C)C)cc(-c2cc3ccccc3s2)c1O [Example 7, 2-(Benzo[b]thiophen-2-yl)-4-(tert-butyl)-6-((tert-butylamino)methyl)phenol hydrochloride] |  |  |
|  |  | CC(C)(C)NCc1cc(C(C)(C)C)cc(-c2ccnc3ccccc23)c1O [Example 8, 4-(tert-Butyl)-2-((tert-butylamino)methyl)-6-(quinolin-4-yl)phenol dihydrochloride] | 109 nM | 94 nM |
| 94 nM | 48 nM | Cn1nc(C(F)(F)F)cc1-c1cc(C(C)(C)C)cc(CNC(C)(C)C)c1O [Example 9, 4-(tert-Butyl)-2-((tert-butylamino)methyl)-6-(1-methyl-3-(trifluoromethyl)-1H-pyrazol-5-yl)phenol hydrochloride] |  |  |
|  |  | CC(C)Oc1ccc(-c2cc(C(C)(C)C)cc(CNC(C)(C)C)c2O)cn1 [Example 10, 4-(tert-Butyl)-2-((tert-butylamino)methyl)-6-(6-isopropoxypyridin-3-yl)phenol dihydrochloride] | 25 nM | 11 nM |
|  |  | CC(C)(C)NCc1cc(C(C)(C)C)cc(-c2ccc(N)nc2)c1O [Example 11, 2-(6-Aminopyridin-3-yl)-4-(tert-butyl)-6-((tert-butylamino)methyl)phenol dihydrochloride] | 350 nM | 398 nM |
|  |  | COc1ccc(-c2cc(C(C)(C)C)cc(CNC(C)(C)C)c2O)cn1 [Example 12, 4-(tert-Butyl)-2-((tert-butylamino)methyl)-6-(6-methoxypyridin-3-yl)phenol dihydrochloride] | 23 nM | 14 nM |
|  |  | CC(C)(C)NCc1cc(C(C)(C)C)cc(-c2cncc3ccccc23)c1O [Example 13, 4-(tert-Butyl)-2-((tert-butylamino)methyl)-6-(isoquinolin-4-yl)phenol dihydrochloride] | 73 nM | 85 nM |
|  |  | CN(C)c1ccc(-c2cc(C(C)(C)C)cc(CNC(C)(C)C)c2O)cn1 [Example 14, 4-(tert-Butyl)-2-((tert-butylamino)methyl)-6-(6-(dimethylamino)pyridin-3-yl)phenol dihydrochloride] | 23 nM | 14 nM |
|  |  | CC(C)(C)NCc1cc(C(C)(C)C)cc(-c2ccc(N3CCCC3)nc2)c1O [Example 15, 4-(tert-Butyl)-2-((tert-butylamino)methyl)-6-(6-(pyrrolidin-1-yl)pyridin-3-yl)phenol dihydrochloride] | 24 nM | 16 nM |
|  |  | COc1cc(-c2cc(C(C)(C)C)cc(CNC(C)(C)C)c2O)ccn1 [Example 16, 4-(tert-Butyl)-2-((tert-butylamino)methyl)-6-(2-methoxypyridin-4-yl)phenol dihydrochloride] | 26 nM | 11 nM |
|  |  | COc1cncc(-c2cc(C(C)(C)C)cc(CNC(C)(C)C)c2O)c1 [Example 17, 4-(tert-Butyl)-2-((tert-butylamino)methyl)-6-(5-methoxypyridin-3-yl)phenol dihydrochloride] | 30 nM | 25 nM |
| 25 nM | 12 nM | CC(C)(C)NCc1cc(C(C)(C)C)cc(-c2cncc(C(F)(F)F)c2)c1O [Example 18, 4-(tert-Butyl)-2-((tert-butylamino)methyl)-6-(5-(trifluoromethyl)pyridin-3-yl)phenol 1.4 hydrochloride] |  |  |
| 21 nM | 9 nM | CC(C)(C)NCc1cc(C(C)(C)C)cc(-c2ccnc(C(F)(F)F)c2)c1O [Example 20, 4-(tert-Butyl)-2-((tert-butylamino)methyl)-6-(2-(trifluoromethyl)pyridin-4-yl)phenol hydrochloride] |  |  |
|  |  | CC(C)(C)NCc1cc(C(C)(C)C)cc(-c2cncc(Cl)c2)c1O [Example 21, 4-(tert-Butyl)-2-((tert-butylamino)methyl)-6-(5-chloropyridin-3-yl)phenol dihydrochloride] | 17 nM | 8 nM |
|  |  | CC(C)(C)NCc1cc(C(C)(C)C)cc(-c2ccc(C(C)(C)C)nc2)c1O [Example 22, 4-(tert-Butyl)-2-(6-(tert-butyl)pyridin-3-yl)-6-((tert-butylamino)methyl)phenol dihydrochloride] | 64 nM | 24 nM |
| 19 nM | 12 nM | CC(C)(C)NCc1cc(C(C)(C)C)cc(-c2ccc(Cl)nc2)c1O [Example 23, 4-(tert-Butyl)-2-((tert-butylamino)methyl)-6-(6-chloropyridin-3-yl)phenol hydrochloride] |  |  |
|  |  | Cc1ccc(-c2cc(C(C)(C)C)cc(CNC(C)(C)C)c2O)nc1 [Example 25, 4-(tert-Butyl)-2-((tert-butylamino)methyl)-6-(5-methylpyridin-2-yl)phenol dihydrochloride] | ≥ 20000 nM | ≥ 20000 nM |
| 1330 nM | 598 nM | CC(C)(C)NCc1cc(C(C)(C)C)cc(-c2ccc(F)cn2)c1O [Example 26, 4-(tert-Butyl)-2-((tert-butylamino)methyl)-6-(5-fluoropyridin-2-yl)phenol 1.35hydrochloride] |  |  |
| 6860 nM | 3440 nM | CC(C)(C)NCc1cc(C(C)(C)C)cc(-c2ncccc2F)c1O [Example 27, 4-(tert-Butyl)-2-((tert-butylamino)methyl)-6-(3-fluoropyridin-2-yl)phenol 1.7hydrochloride] |  |  |
| 357 nM | 111 nM | CC(C)(C)NCc1cc(C(C)(C)C)cc(-c2cc(C(F)(F)F)ccn2)c1O [Example 28, 4-(tert-Butyl)-2-((tert-butylamino)methyl)-6-(4-(trifluoromethyl)pyridin-2-yl)phenol hydrochloride] |  |  |
| 192 nM | 68 nM | CC(C)(C)NCc1cc(C(C)(C)C)cc(-c2cccc(C(F)(F)F)n2)c1O [Example 29, 4-(tert-Butyl)-2-((tert-butylamino)methyl)-6-(6-(trifluoromethyl)pyridin-2-yl)phenol hydrochloride] |  |  |
